For one series, the target named is TrxRl (Homo sapiens, UniProt Q16881). The settings on record: cell extracts and crystal structure of tetrameric TrxRl; earlier publication of the applicants; cited from earlier work.
Another series concerns HCT116-Cas9. Nature of the series: Growth suppression assay (resazurin). The series is classed as cell-based. As to conditions: 48 hours of incubation. Here is the method:
(§1) Breast, colon, ovarian, cervical, liver and lung carcinoma cell lines were grown in DMEM supplemented with 10% FBS, and antibiotics were cultured at 37 °C and 5% CO2. […] To obtain an oxygen concentration of 0.05%, the cells were flushed with the premixed gas continuously throughout the experiment.
(§2) Cells were grown in 96-well plates at a density of 3000 cells per well with or without doxycycline and treated with compounds. After 48 hours of incubation the proliferative cell reagent resazurin (Thermo Fisher Scientific) was added to the cells. The degree of resazurin reduction, which reflects cell viability, was measured by microplate reader by monitoring the absorbance at 570 nm and 600 nm, according to the manufacturer.
Background: The colour change of resazurin is a common sign of viable cells or microbes.

Another series is described as follows: Solubility (solvent). The series is classed as physicochemical. The settings on record: solvent named in the table.
In another series the test system is MCF7-Cas9. As to the kind of experiment: Growth suppression assay (resazurin). The series is classed as cell-based. As to conditions: 48 hours of incubation. As to the method:
as §1, §2

As a reminder, the IC50 is the concentration needed to halve the response being measured. A lower IC50 goes with greater potency.

Molecules are shown by their SMILES. Counter-ions that a name gives are not always drawn.

Chain of TrxRl (Q16881 151-649): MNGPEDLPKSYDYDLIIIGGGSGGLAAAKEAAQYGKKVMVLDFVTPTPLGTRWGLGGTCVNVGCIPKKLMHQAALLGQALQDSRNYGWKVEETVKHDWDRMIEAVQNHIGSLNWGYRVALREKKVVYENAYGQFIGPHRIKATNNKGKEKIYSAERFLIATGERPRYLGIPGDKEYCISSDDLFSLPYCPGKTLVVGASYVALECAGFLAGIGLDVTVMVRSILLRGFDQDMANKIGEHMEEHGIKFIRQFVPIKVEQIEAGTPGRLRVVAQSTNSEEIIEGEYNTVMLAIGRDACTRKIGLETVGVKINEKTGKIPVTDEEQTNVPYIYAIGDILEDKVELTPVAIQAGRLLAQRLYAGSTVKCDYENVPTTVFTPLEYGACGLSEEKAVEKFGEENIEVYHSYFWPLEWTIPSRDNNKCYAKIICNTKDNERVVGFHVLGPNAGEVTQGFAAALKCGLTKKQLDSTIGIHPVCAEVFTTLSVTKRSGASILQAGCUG

Regarding `OCc1ccc(-c2ccc(-c3ccc(CO)s3)o2)s1` [RITA], at TrxRl, the “covalent link between TrxRl subunits” value is reported as “induced the formation of a covalent link between two oxidized Trp114 residues”.
Molecule `N#Cc1c(-c2cccnc2)[n+]([O-])c2cc(F)c(N3CCOCC3)cc2[n+]1[O-]` [Compound 1d, 6-Fluoro-7-(morpholin-4-yl)-3-(pyridin-3-yl)quinoxaline-2-carbonitrile-1,4-dioxide] showed an IC50 in the series with HCT116-Cas9 of 4.1 µM. Besides, the Solubility entry in the series “Solubility (solvent)” is “Warm DMSO”.
Consider `N#Cc1c(-c2ccncc2)[n+]([O-])c2cc(F)c(N3CCOCC3)cc2[n+]1[O-]` [1b*HCl, 6-Fluoro-7-(morpholin-4-yl)-3-(pyridin-4-yl)quinoxaline-2-carbonitrile-1,4-dioxide hydrochloride], for which the IC50 with HCT116-Cas9 (hydrochloride) turned out to be 3.2 µM; in the series with MCF7-Cas9 (hydrochloride), 3.8 µM.
Turning to `N#Cc1c(-c2cccnc2)[n+]([O-])c2cc(N3CCOCC3)c(F)cc2[n+]1[O-]` [1c*HCl, 7-Fluoro-6-(morpholin-4-yl)-3-(pyridin-3-yl)quinoxaline-2-carbonitrile-1,4-dioxide hydrochloride], the IC50 in the series with HCT116-Cas9 (hydrochloride) was 10.9 µM; in the series with MCF7-Cas9 (48 h) it was greater than 10 µM.
`N#Cc1c(-c2ccncc2)[n+]([O-])c2cc(F)c(N3CCOCC3)cc2[n+]1[O-]` [Compound 1b, 6-Fluoro-7-(morpholin-4-yl)-3-(pyridin-4-yl)quinoxaline-2-carbonitrile-1,4-dioxide]: the IC50 worked out at 2.8 µM in the series on HCT116-Cas9 (48 h) and 4.1 µM with MCF7-Cas9 (48 h). The Solubility result in “Solubility (solvent)” is recorded as “Warm DMSO”.
As for `N#Cc1c(-c2ccncc2)[n+]([O-])c2cc(N3CCOCC3)c(F)cc2[n+]1[O-]` [1a*MsOH, 7-Fluoro-6-(morpholin-4-yl)-3-(pyridin-4-yl)quinoxaline-2-carbonitrile-1,4-dioxide methanesulfonate], the IC50 in the series on HCT116-Cas9 (methanesulfonate) was 1.2 µM; in the series on MCF7-Cas9 (methanesulfonate) it was 2.4 µM.
Consider `N#Cc1c(-c2cccnc2)[n+]([O-])c2cc(F)c(N3CCCC3)cc2[n+]1[O-]` [Compound 1f, 6-Fluoro-7-(pyrrolidin-1-yl)-3-(pyridin-3-yl)quinoxaline-2-carbonitrile-1,4-dioxide], for which the IC50 amounted to 2.2 µM with HCT116-Cas9 (48 h) and 3.8 µM in the series with MCF7-Cas9 (48 h). Moreover, the Solubility entry in “Solubility (solvent)” is reported as “Warm DMSO”.
As to `N#Cc1c(-c2ccncc2)[n+]([O-])c2cc(F)c(N3CCOCC3)cc2[n+]1[O-]` [1b*MsOH, 6-Fluoro-7-(morpholin-4-yl)-3-(pyridin-4-yl)quinoxaline-2-carbonitrile-1,4-dioxide methanesulfonate], 4.2 µM corresponded to half-maximal inhibition in the series on MCF7-Cas9 (methanesulfonate) (IC50).
For the molecule `N#Cc1c(-c2ccncc2)[n+]([O-])c2cc(N3CCOCC3)c(F)cc2[n+]1[O-]` [Compound 1a, 7-Fluoro-6-(morpholin-4-yl)-3-(pyridin-4-yl)quinoxaline-2-carbonitrile 1,4-dioxide], the IC50 with HCT116-Cas9 was determined as 3.5 µM; with MCF7-Cas9, 6.9 µM. The Solubility entry in “Solubility (solvent)” is reported as “Warm DMSO”.
For `N#Cc1c(-c2cccnc2)[n+]([O-])c2cc(N3CCOCC3)c(F)cc2[n+]1[O-]` [Compound 1c, 7-Fluoro-6-(morpholin-4-yl)-3-(pyridin-3-yl)quinoxaline-2-carbonitrile-1,4-dioxide], the IC50 with HCT116-Cas9 came out at 3.3 µM. Further, in the series “Solubility (solvent)”, the Solubility entry is reported as “Warm DMSO”.
For `N#Cc1c(-c2cccnc2)[n+]([O-])c2cc(F)c(N3CCCCC3)cc2[n+]1[O-]` [Compound 1g, 6-Fluoro-7-(piperidin-1-yl)-3-(pyridin-3-yl)quinoxaline-2-carbonitrile-1,4-dioxide], the values for the concentration for half-maximal inhibition (IC50) in the series on HCT116-Cas9 (48 h) and in the series on MCF7-Cas9 (48 h) were 2.8 µM and 4.1 µM, respectively. In addition, the Solubility entry in the series “Solubility (solvent)” is reported as “Warm DMSO”.

The values above are taken from patent publication EP4201929A1, “QUINOXALINE THIOREDOXIN REDUCTASE INHIBITORS” (geneXplain GmbH, priority 2021, dated 2023).
